Reference: patent US4918054A, “Antibiotics called `chloropolysporins B and C`, a process for their preparation, and their therapeutic and veterinary use” (Sankyo Company Limited, priority 1985, dated 1990)
Values after ≈ are worked out from the molar mass of the structure shown.

Columns and labels:
[1] = test system: Fusobacterium necrophorum; test: MIC against anaerobic bacteria, GAM agar medium; assay type: cell-based
[2] = test system: Staphylococcus aureus FDA 209P JC-1; test: MIC, two-fold agar dilution method, Mueller-Hinton agar; assay type: cell-based
[3] = test system: Mycobacterium smegmatis ATCC 607; test: as above; assay type: cell-based
Clostridium perfringens = assay type: cell-based; conditions: anaerobic, GAM agar
Eubacterium cylindroides = test: MIC against anaerobic bacteria, GAM agar medium; assay type: cell-based
[4] = test system: Peptostreptococcus parvulus; test: MIC against anaerobic bacteria, GAM agar medium; assay type: cell-based
Propionibacterium acnes = test: MIC against anaerobic bacteria, GAM agar medium; assay type: cell-based
[5] = test system: Escherichia coli NIHJ JC-2; test: MIC, two-fold agar dilution method, Mueller-Hinton agar; assay type: cell-based
[6] = test system: Staphylococcus epidermidis SANK 71575; test: as above; assay type: cell-based
[7] = test system: Staphylococcus aureus SANK 70175; test: as above; assay type: cell-based
Clostridium difficile = test: MIC against anaerobic bacteria, GAM agar medium; assay type: cell-based
Description: The minimal inhibitory concentrations (MIC) of chloropolysporins B and C against various gram-positive and gram-negative bacteria were determined by the two-fold agar dilution method, using a Mueller-Hinton agar medium (produced by Difco); the MIC against anaerobic bacteria was determined using a GAM agar medium (produced by Nissui).

[8] = test system: Serratia marcescens SANK 73060; test: MIC, two-fold agar dilution method, Mueller-Hinton agar; assay type: cell-based
[9] = test system: Enterococcus faecalis SANK 71778; test: as above; assay type: cell-based
[10] = test system: Staphylococcus aureus Smith; test: as above; assay type: cell-based
[11] = test system: Bacillus subtilis PCI 219; test: as above; assay type: cell-based
Clostridium ramosum = test: MIC against anaerobic bacteria, GAM agar medium; assay type: cell-based
[12] = test system: Pseudomonas aeruginosa NCTC 10490; test: MIC, two-fold agar dilution method, Mueller-Hinton agar; assay type: cell-based
[13] = test system: Proteus mirabilis SANK 70461; test: as above; assay type: cell-based
Bacteroides fragilis = test: MIC against anaerobic bacteria, GAM agar medium; assay type: cell-based
[14] = test system: Klebsiella pneumoniae PCI 602; test: MIC, two-fold agar dilution method, Mueller-Hinton agar; assay type: cell-based
Solubility in solvents = assay type: physicochemical
[15] = test system: Peptostreptococcus saccharoliticus; test: MIC against anaerobic bacteria, GAM agar medium; assay type: cell-based
Clostridium symbiosum = test: MIC against anaerobic bacteria, GAM agar medium; assay type: cell-based

Structure (SMILES) | MIC [1] [µg/mL] | MIC [2] [µg/mL] | MIC [3] [µg/mL] | MIC (Clostridium perfringens) [µg/mL] | MIC (Eubacterium cylindroides) [µg/mL] | MIC [4] [µg/mL] | MIC (Propionibacterium acnes) [µg/mL] | MIC [5] [µg/mL] | MIC [6] [µg/mL] | MIC [7] [µg/mL] | MIC (Clostridium difficile) [µg/mL] | MIC [8] [µg/mL] | MIC [9] [µg/mL] | MIC [10] [µg/mL] | MIC [11] [µg/mL] | MIC (Clostridium ramosum) [µg/mL] | MIC [12] [µg/mL] | MIC [13] [µg/mL] | MIC (Bacteroides fragilis) [µg/mL] | MIC [14] [µg/mL] | also measured
CNC(C(=O)NC1C(=O)NC(c2ccc(O)c(Cl)c2)C(=O)NC2C(=O)NC3C(=O)NC(C(=O)NC(C(=O)O)c4cc(O)cc(O)c4-c4cc3ccc4O)C(OC3CC(N)C(O)C(C)O3)c3ccc(c(Cl)c3)Oc3cc2cc(c3OC2OC(CO)C(O)C(O)C2O)Oc2ccc(cc2Cl)C1OC1OC(CO)C(O)C(O)C1O)c1ccc(OC2OC(C)C(O)C(O)C2O)cc1 (stereo not shown) [Chloropolysporin B, chloropolysporin B] | > 100 | 1.56 (≈ 0.844 µM) | 25.0 (≈ 13.5 µM) | 0.20 (≈ 0.108 µM) | 6.25 (≈ 3.38 µM) | 0.78 (≈ 0.422 µM) | 0.78 (≈ 0.422 µM) | > 100 | 3.13 (≈ 1.69 µM) | 3.13 (≈ 1.69 µM) | 0.78 (≈ 0.422 µM) | > 100 | 1.56 (≈ 0.844 µM) | 12.5 (≈ 6.76 µM) | 0.78 (≈ 0.422 µM) | 1.56 (≈ 0.844 µM) | > 100 | > 100 | > 100 | > 100 | solubility in acetone (Solubility in solvents; as its sulfate): sparingly soluble; solubility in benzene (Solubility in solvents; as its sulfate): insoluble; solubility in chloroform (Solubility in solvents; as its sulfate): insoluble; solubility in ethyl acetate (Solubility in solvents; as its sulfate): insoluble; solubility in methanol (Solubility in solvents; as its sulfate): soluble; solubility in water (Solubility in solvents; as its sulfate): soluble; solubility in water (Solubility in solvents; free bases): insoluble in water; MIC [15]: 6.25 µg/mL (≈ 3.38 µM); MIC (Clostridium symbiosum): 1.56 µg/mL (≈ 0.844 µM)
CNC(C(=O)NC1C(=O)NC(c2ccc(O)c(Cl)c2)C(=O)NC2C(=O)NC3C(=O)NC(C(=O)NC(C(=O)O)c4cc(O)cc(O)c4-c4cc3ccc4O)C(OC3CC(N)C(O)C(C)O3)c3ccc(c(Cl)c3)Oc3cc2cc(c3OC2OC(CO)C(O)C(O)C2O)Oc2ccc(cc2Cl)C1OC1OC(CO)C(O)C(O)C1O)c1ccc(O)cc1 (stereo not shown) [Chloropolysporin C, chloropolysporin C] | > 100 | 1.56 (≈ 0.916 µM) | 12.5 (≈ 7.34 µM) | 0.10 (≈ 0.0587 µM) | 3.13 (≈ 1.84 µM) | 0.39 (≈ 0.229 µM) | 0.39 (≈ 0.229 µM) | > 100 | 3.13 (≈ 1.84 µM) | 1.56 (≈ 0.916 µM) | 0.39 (≈ 0.229 µM) | > 100 | 1.56 (≈ 0.916 µM) | 6.25 (≈ 3.67 µM) | 0.78 (≈ 0.458 µM) | 1.56 (≈ 0.916 µM) | > 100 | > 100 | > 100 | > 100 | solubility in acetone (Solubility in solvents; as its sulfate): sparingly soluble; solubility in benzene (Solubility in solvents; as its sulfate): insoluble; solubility in chloroform (Solubility in solvents; as its sulfate): insoluble; solubility in ethyl acetate (Solubility in solvents; as its sulfate): insoluble; solubility in methanol (Solubility in solvents; as its sulfate): soluble; solubility in water (Solubility in solvents; as its sulfate): soluble; solubility in water (Solubility in solvents; free bases): insoluble in water; MIC [15]: 3.13 µg/mL (≈ 1.84 µM); MIC (Clostridium symbiosum): 0.39 µg/mL (≈ 0.229 µM)
